Measured values taken from US6410249B1, “Odorant receptors” (priority 1999, dated 2002).

Experiments:
[1] = tested on: goldfish olfactory neurons; assay: multi-unit recordings from the goldfish olfactory epithelium; format: cell-based; details: 100 μM
receptor 5.24 [2] = biological target: T1, receptor 5.24 (Carassius auratus, UniProt Q9PW88); assay: biochemical; format: binding
T1 construct: The receptor 5.24 full length cDNA detects 1-2 bands in genomic DNA blots; expressed in transfected cells; host or cells: HEK 293 cells expressing SV40 large T antigen (293-TSA)
T1 sequence (Q9PW88 25-877): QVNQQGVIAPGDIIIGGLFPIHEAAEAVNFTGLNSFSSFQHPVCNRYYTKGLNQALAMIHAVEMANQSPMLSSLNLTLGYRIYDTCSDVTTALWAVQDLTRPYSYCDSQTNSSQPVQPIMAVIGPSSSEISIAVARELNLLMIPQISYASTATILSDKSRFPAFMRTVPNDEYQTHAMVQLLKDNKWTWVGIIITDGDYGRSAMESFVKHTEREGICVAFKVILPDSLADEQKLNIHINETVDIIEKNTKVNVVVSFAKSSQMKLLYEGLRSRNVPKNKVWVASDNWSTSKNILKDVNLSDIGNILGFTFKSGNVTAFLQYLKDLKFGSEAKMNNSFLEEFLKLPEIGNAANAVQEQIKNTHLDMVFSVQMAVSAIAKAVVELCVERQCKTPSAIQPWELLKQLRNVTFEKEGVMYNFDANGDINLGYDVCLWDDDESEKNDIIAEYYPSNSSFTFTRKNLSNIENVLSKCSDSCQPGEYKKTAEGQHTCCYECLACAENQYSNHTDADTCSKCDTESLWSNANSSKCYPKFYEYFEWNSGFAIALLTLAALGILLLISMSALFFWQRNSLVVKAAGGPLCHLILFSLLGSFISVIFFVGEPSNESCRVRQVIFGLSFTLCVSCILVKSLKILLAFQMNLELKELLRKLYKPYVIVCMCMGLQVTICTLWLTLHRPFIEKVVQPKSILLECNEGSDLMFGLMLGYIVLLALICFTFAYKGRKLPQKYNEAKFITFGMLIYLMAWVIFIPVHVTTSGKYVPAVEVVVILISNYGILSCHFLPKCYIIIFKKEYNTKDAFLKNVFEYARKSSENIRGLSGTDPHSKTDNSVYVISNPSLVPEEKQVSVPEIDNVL
Protocol: Structure-Activity Properties of Compounds Interacting with the Cloned Goldfish Amino Acid Odorant Receptor. An understanding of how odorant receptors are used to encode olfactory information requires a characterization of the odorant specificities of individual receptor types. We therefore wished to determine the relative specificity of receptor 5.24 for structurally related ligands. […] Briefly, 3H-arginine binding to membranes from receptor 5.24-expressing HEK 293 cells was assayed in the absence or presence of varying concentrations of competitor ligands.
Mammalian Cell Culture and DNA Transfections. For cell transfections, the receptor 5.24 cDNA insert was subcloned into two expression vectors: CMVI, which utilizes a human cytomegalovirus (CMV) immediate early promoter-enhancer plus the CMV intron A sequence to drive expression, and 608RX-2.2L, which is similar to CMVI except the cDNA insert is followed by an internal ribosome entry site (IRES)—enhanced green fluorescent protein (EGFP) coding sequence; 608RX-2.2L also contains a puromycin resistance gene. For transient assays, HEK 293 cells expressing the SV40 large T antigen (293 TSA cells) were transfected with the CMVI-receptor 5.24 or CMVI control plasmid using lipofectamine (Life Technologies) and harvested at 48 hours for membrane preparations. For stable cell lines, 293-TSA cells were transfected with the 608RX-2.2L-receptor 5.24 plasmid or a control 608RX-2.2L plasmid and selected in puromycin. Colonies showing high levels of EGFP fluorescence (as judged by epifluorescence microscopy) were picked, expanded, and screened for 3H-L-arginine binding (see below).
Membrane Preparations and Ligand Binding Assays. Membranes for ligand binding assays were prepared by washing confluent cells three times with phosphate buffered saline (PBS), detaching cells with a PBS-based enzyme-free dissociation solution, and resuspending cells in ice-cold 5.0 mM Hepes, pH 7.4, 1.0 mM EDTA, 1.0 μg/ml leupeptin, 0.5 mM PMSF. All subsequent manipulations were performed on ice. After a 30 min incubation, the cell suspension was homogenized and centrifuged at 100,000×g for 30 min. Cell membrane pellets were washed twice by resuspension and centrifugation in binding buffer (20 mM Hepes, pH 7.4, 1.0 mM EDTA, 2.0 mM MgCl2, 1.0 μg/ml leupeptin, 0.5 mM PMSF), resuspended in binding buffer, and frozen at −80° C.
Saturation binding assays were performed using 20-25 μg of membrane protein in a final volume of 100 μl binding buffer and increasing concentrations of [2,3-3H] L-arginine (specific activity=40 Ci/mmol; Dupont NEN). Non-specific binding was measured in the presence of 500 μM unlabeled L-arginine. Competition assays were performed with 500 nM [2,3-3H] L-arginine and increasing concentrations of competitor ligands. All incubations were performed at 4° C. for 60 min and terminated by rapid filtration through Whatman GF/C filters pretreated with ice cold 0.1% polyethyleneimine. Filters were washed three times with 4.0 ml ice cold 20 mM Hepes, pH 7.4, and retained radioactivity was measured by scintillation counting.

[3] = tested on: catfish olfactory neurons; details: 100 μM, catfish olfactory epithelium; cited from earlier work
receptor 5.24 [4] = biological target: T1, receptor 5.24; assay: cAMP accumulation in receptor 5.24-expressing HEK 293 cells; format: cell-based, goldfish; details: 0.1 mM or 10 mM
Description: High-Affinity Binding of Radiolabeled L-Arginine to the Cloned Goldfish Odorant Receptor. To determine the affinity of the cloned goldfish amino acid receptor for basic amino acids, we characterized the ligand-receptor interaction by radiolabeled ligand binding to receptors expressed in mammalian cells. Human embryonic kidney (HEK) 293 cells were transfected with expression plasmids containing the receptor 5.24 cDNA insert. […] We next wished to determine what second messenger pathway receptor 5.24 couples to in HEK 293 cells. Control cells or cells expressing receptor 5.24 were exposed to varying concentrations of arginine and assayed for the accumulation of IP3 and cAMP.
IP3 and cAMP Measurements. For measurements of IP3 and cAMP, cell lines 5.24-20 and 2.2-9 (negative control) were plated at densities of 3.5×10^5 cells/well in 24 well plates and incubated overnight in DMEM containing 10% FBS. All subsequent manipulations prior to reaction termination were performed at 37° C. in 5% CO2. […] IP3 levels were determined by a radioreceptor competition assay (Dupont NEN). For cAMP measurements, after the 3 hour amino acid-free preincubation cells were washed once with PBS, preincubated for 15 min in PBS containing 0.5 mM IBMX, and exposed to odorants in 400 μl PBS/0.5 mM IBMX for 30 min. cAMP levels were determined by radioimmunoassay (DuPont NEN).

N=C(N)NCCC[C@H](N)C(=O)O [L-Arginine]
locations with spontaneous activity that responded [1]: 25 out of 28 | Ki (receptor 5.24 [2]): 80 nM | binding to receptor 5.24, in words (receptor 5.24 [2]; comparative binding studies): highest affinities | fraction of olfactory neurons responding [3]: ~40% | change in cAMP levels, in words (receptor 5.24 [4]): does not cause a detectable change
